Measured values from PMC5154303, “Flavonol and imidazole derivatives block HPV16 E6 activities and reactivate apoptotic pathways in HPV^+ cells” (Cell Death & Disease, 2016).
pEC50: −log10 of the molar value.

Tests used:
[1] = test system: C33A cells; assay: TRAIL-mediated apoptosis in HPV− C33A cells (MTT); format: cell-based, human; details: 100 μM myricetin pretreatment 4 h, TRAIL + cycloheximide
Experimental: Figure 5 Myricetin and spinacine (5) can re-sensitize HPV^+, but not HPV^−, cells to treatment with TRAIL. SiHa (2 × 10^4 cells per well) and C33A cells (1 × 10^4 cells per well) were seeded into a 96-well plate and allowed to incubate overnight, and then cells were pretreated in the presence or absence of (a) myricetin (100 μM) or (b) spinacine (50 μM) for 4 h. The indicated concentration of TRAIL along with cycloheximide (5 μg/ml) was added, and the cells were allowed to incubate overnight. Cell viability was measured by MTT assay, and the viability of cells untreated with TRAIL was set at 100%. Experiments were performed in triplicate, and error bars indicate the S.D.
(§1) The extracellular domain of human TRAIL was cloned into a pTriEx expression plasmid containing N-terminal Hisx6 tag. His-TRAIL was expressed in the E. coli BL-21 pLys strain and purified as previously described. Doxorubicin and cisplatin were purchased from Sigma. His-TRAIL, doxorubicin, and cisplatin were diluted in PBS to the desired concentration before using. […] All experiments were repeated at least three times (three biological replicates, carried out on different days), with each experimental group measured in triplicate within each of these individual experiments. […]

[2] = biological target: T1, GST-E6/His-E6AP (Human papillomavirus type 16, UniProt P03126); assay: AlphaScreen bead-based binding assay GST-E6/His-E6AP; set-up: species or system HPV 16
T1 construct: made in house
T1 sequence (P03126 whole entry): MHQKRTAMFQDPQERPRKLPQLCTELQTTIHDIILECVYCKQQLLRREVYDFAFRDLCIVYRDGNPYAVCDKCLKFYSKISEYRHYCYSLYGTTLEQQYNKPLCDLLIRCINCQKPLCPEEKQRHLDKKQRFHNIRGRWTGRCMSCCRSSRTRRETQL
Experimental: (§2) Figure 2 3-(1H-indol-1yl)propan-1-amine (1), three benzimidazole derivatives (2–4), and spinacine (5) inhibit protein–protein interactions. Five compounds at the indicated concentrations (1.4 μM–3.2 mM) were tested using our bead-based screening assay for their ability to inhibit three different protein/protein interactions: (a) GST-E6/His-caspase 8; (b) GST-E6/HisE6AP; and (c) GST-caspase 8/His-caspase 8. Binding in the presence of 1.4 μM of the test compound was set at 100%. Experiments were performed in triplicate, and error bars indicate the S.D.
(§3) The construction of the pGEX-E6, pTriEx-E6AP, and pTriEx-Caspase-8 DED plasmids has been reported.[33] Expression and purification of GSTE6, His-E6AP, and His-Caspase-8 DED were carried out as previously described.[33], [37] GST-tagged and His-tagged proteins were diluted into GST dilution buffer (PBS pH 8.0, 5% glycerol, 2 mM DTT) and His dilution buffer (20 mM Hepes pH 7.4, 150 mM NaCl, 2 mMKCl, 5% glycerol, 2 mM DTT), respectively. Protein concentration was measured using Coomassie Plus – The Better Bradford Assay Reagent (Thermo Scientific, Waltham, MA, USA). Purity of the isolated proteins was estimated following separation by sodium dodecyl sulfate-polyacrylamide gel electrophoresis (SDS-PAGE) and Coomassie staining.
(§4) AlphaScreen Technology was used to assess the interactions between GST-E6, GST-caspase 8, His-E6AP, and His-caspase 8. Binding assays were performed in white 384-well plates (Perkin-Elmer) in a total volume of 25 μl as previously described.[33] Briefly, 5 μl (50 ng) of GST-E6 and 5 μl (87.5 ng) of His-caspase 8 were included in each reaction mixture with 5 μl blocking buffer (0.5 mg BSA, 0.5% Tween 20 in PBS) in the absence or presence of 10 μM of each test chemical. Members of the library were present at 10 μM in DMSO. After a 1-h incubation of the mixture at room temperature, 5 μl donor beads and 5 μl acceptor beads (Perkin-Elmer) were added to each well according to the manufacturer's protocol. The mixture was incubated in the dark at room temperature overnight, and the emitted signal was detected using the Envision Multilabel plate reader (Perkin-Elmer). In the presence of test chemicals, the binding affinity was calculated as a percentage of the binding in the presence of carrier only (DMSO).

[3] = test system: UM-SCC47-TC-Clone 3; assay: Sensitization to doxorubicin in HPV+ HNSCC line UM-SCC47-TC-Clone 3 (MTT); format: cell-based, human; details: HPV+ #47CL3, 12.5 μM compound 4 h, 2 μM doxorubicin
Experimental: (§5) Figure 8 Myricetin and spinacine (5) can re-sensitize HPV^+, but not HPV^−, HNSCC cell lines to treatment with doxorubicin. Two HPV^− (UMMSCC 29 and SCC 84) and three HPV^+ (UMSCC 47, UPCI-SCC90-UP-Clone 35, and UM-SCC47-TC Clone 3) head and neck cancer cell lines (2 × 10^4 cells per well) were seeded into 96-well plates and allowed to incubate overnight, and then cells were pretreated with myricetin or spinacine (0–12.5 μM) for 4 h. In all, 2 μM of doxorubicin was added, and the cells were allowed to incubate overnight. Cell viability was measured by MTT assay, and the viability of cells untreated with small molecules was set at 100%. Experiments were performed in triplicate, and error bars indicate the S.D.
as §1

[4] = biological target: T2, GST-E6/His-caspase 8 (Human papillomavirus type 16, UniProt P03126); assay: AlphaScreen bead-based binding assay GST-E6/His-caspase 8; set-up: species or system HPV 16
T2 construct: made in house
T2 sequence (P03126 whole entry): as above
Experimental: as §2, §3, §4

[5] = test system: UPCI-SCC90-UP-Clone 35; assay: Sensitization to doxorubicin in HPV+ HNSCC line UPCI-SCC90-UP-Clone 35 (MTT); format: cell-based, human; details: HPV+ #90, 12.5 μM compound 4 h, 2 μM doxorubicin
Experimental: as §5, §1

[6] = test system: UMSCC 47; assay: Sensitization to doxorubicin in HPV+ HNSCC line UMSCC 47 (MTT); format: cell-based, human; details: HPV+ #47, 12.5 μM compound 4 h, 2 μM doxorubicin
Experimental: as §5, §1

[7] = biological target: GST-caspase 8/His-caspase 8 (Homo sapiens, UniProt Q14790); assay: AlphaScreen counter-screen GST-caspase 8/His-caspase 8; format: binding; details: counter-screen, bead-based assay, 1.4 μM–3.2 mM tested
Sequence of GST-caspase 8/His-caspase 8 (Q14790 1-184): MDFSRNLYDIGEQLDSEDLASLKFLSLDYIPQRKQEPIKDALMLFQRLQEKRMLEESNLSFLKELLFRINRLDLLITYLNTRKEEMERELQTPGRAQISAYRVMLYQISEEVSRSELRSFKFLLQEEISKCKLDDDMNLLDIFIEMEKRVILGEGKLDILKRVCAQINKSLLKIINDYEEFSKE
Experimental: as §2
To ask whether this inhibition was specific, we employed a counter-screening assay in which we assessed the ability of candidates to inhibit the binding of GST-caspase 8 to His-caspase 8; those that did were to be eliminated. In this counter-screening assay, the materials in each well were the same as in the primary screen, with the exception that GST-caspase 8 replaced GST-E6.
as §4

Q: O=c1c(O)c(-c2cc(O)c(O)c(O)c2)oc2cc(O)cc(O)c12 [Myricetin, myricetin, reference compound] was tested. Which “sensitivity of C33A cells to TRAIL-mediated apoptosis” value [1] did it give?
A: Its value is “remained resistant”.

Q: With O=C(O)C1Cc2[nH]cnc2CN1 (stereo not shown) [Spinacine (5), 4,5,6,7-tetrahydro-1H-imidazo[4,5–c]pyridine-6-carboxylic acid] as the molecule, how does the pEC50 [2] read?
A: The pEC50 was 4.70.

Q: And the sensitization to doxorubicin [3]?
A: The sensitization to doxorubicin was “up to 50%”.

Q: What about the pEC50 [4] of the same molecule?
A: The pEC50 was 4.77.

Q: And the sensitization to doxorubicin [5]?
A: The sensitization to doxorubicin was “up to 50%”.

Q: What about the sensitization to doxorubicin [6] of the same molecule?
A: The sensitization to doxorubicin was “up to 50%”.

Q: What about the “EC50 for GST-caspase 8/His-caspase 8 interaction” value [7] of the same molecule?
A: The value was “No Inhibition”.
